# pIC50: −log10 of the molar value. Counter-ions that a name gives are not always drawn.
# Tests used:
# Cat L = Cat L (UniProt P07711); test: Cathepsin enzyme inhibition assay (fluorogenic peptide substrate Z-Val-Val-Arg-AMC), Cathepsin L; assay type: biochemical, human and mouse; settings: enzyme 1 nM, substrate 20 μM, pH 6.5; read-out: CatL IC50
# Summary of the method: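 Cathepsin L at 1 nM was mixed with compound, then started with 20 μM Z-Val-Val-Arg-AMC in pH 6.5 potassium phosphate with EDTA, Triton X-100 and 5 mM DTT. AMC fluorescence (ex 360/em 465 nm) was followed over 20 min. IC50 is given in μM.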
# Cathepsin S = Cathepsin S (UniProt P25774); test: Cathepsin enzyme inhibition assay (fluorogenic peptide substrate Z-Val-Val-Arg-AMC), Cathepsin S; assay type: biochemical, human and mouse; settings: enzyme 1 nM, substrate 20 μM, pH 6.5; read-out: CatS IC50
# Summary of the method: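 Human or mouse cathepsin S (1 nM) was run in 100 mM potassium phosphate pH 6.5 with 5 mM EDTA, 0.001% Triton X-100 and 5 mM DTT. The rise in AMC fluorescence from cleavage was measured, and IC50 values were calculated by standard methods and expressed in μM.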
SMILES,pIC50 (Cat L),pIC50 (Cathepsin S)
"N#CC1(NC(=O)[C@@H]2C[C@@H](S(=O)(=O)c3ccccc3C(F)(F)F)CN2)CC1 [Example 43, (2S,4R)-4-(2-Trifluoromethyl-benzenesulfonyl)-pyrrolidine-2-carboxylic acid (1-cyano-cyclopropyl)-amide]",≤ 4.60,8.66
"CC(C)(C#N)NC(=O)[C@@H]1C[C@@H](S(=O)(=O)c2ccccc2Cl)CN1 [Example 44, (2S,4R)-4-(2-Chloro-benzenesulfonyl)-pyrrolidine-2-carboxylic acid (cyano-dimethyl-methyl)-amide Hydrochloride]",≤ 4.60,6.82
"N#CC1(NC(=O)[C@@H]2C[C@@H](S(=O)(=O)c3ccccc3Cl)CN2)CCC1 [Example 45, (2S,4R)-4-(2-Chloro-benzenesulfonyl)-pyrrolidine-2-carboxylic acid (1-cyano-cyclobutyl)-amide Hydrochloride]",≤ 4.60,6.42
"N#CC1(NC(=O)[C@@H]2C[C@@H](S(=O)(=O)c3ccccc3Cl)CN2)CCCCC1 [Example 46, (2S,4R)-4-(2-Chloro-benzenesulfonyl)-pyrrolidine-2-carboxylic acid (1-cyano-cyclohexyl)-amide Hydrochloride]",≤ 4.60,6.68
"CC(C#N)(NC(=O)[C@@H]1C[C@@H](S(=O)(=O)c2ccccc2Cl)CN1)c1ccccc1 (stereo partly drawn) [Example 48, (2S,4R)-4-(2-Chloro-benzenesulfonyl)-pyrrolidine-2-carboxylic acid (cyano-methyl-phenyl-methyl)-amide Hydrochloride]",≤ 4.60,6.63
"Cc1ccc(S(=O)(=O)[C@H]2CN[C@H](C(=O)NC3(C#N)CC3)C2)c(C)c1 [Example 49, (2S,4R)-4-(2,4-Dimethyl-benzenesulfonyl)-pyrrolidine-2-carboxylic acid (1-cyano-cyclopropyl)-amide Hydrochloride]",5.16,8.74
"Cc1cc(Cl)ccc1S(=O)(=O)[C@H]1CN[C@H](C(=O)NC2(C#N)CC2)C1 [Example 50, (2S,4R)-4-(4-Chloro-2-methyl-benzenesulfonyl)-pyrrolidine-2-carboxylic acid (1-cyano-cyclopropyl)-amide Hydrochloride]",5.06,8.36
"N#CC1(NC(=O)[C@@H]2C[C@@H](S(=O)(=O)c3cccc(Cl)c3Cl)CN2)CC1 [Example 51, (2S,4R)-4-(2,3-Dichloro-benzenesulfonyl)-pyrrolidine-2-carboxylic acid (1-cyano-cyclopropyl)-amide Hydrochloride]",≤ 4.60,7.59
"N#CCNC(=O)[C@@H]1C[C@@H](S(=O)(=O)c2ccccc2)CN1C(=O)c1ccccc1 [Example 52, (2S,4R)-4-Benzenesulfonyl-1-benzoyl-pyrrolidine-2-carboxylic acid cyanomethyl-amide]",≤ 4.60,7.85
"N#CCNC(=O)[C@@H]1C[C@@H](S(=O)(=O)c2ccccc2)CN1C(=O)C1CCCCC1 [Example 53, (2S,4R)-4-Benzenesulfonyl-1-cyclohexanecarbonyl-pyrrolidine-2-carboxylic acid cyanomethyl-amide]",≤ 4.60,8.28
"N#CCNC(=O)[C@@H]1C[C@@H](S(=O)(=O)c2ccccc2)CN1Cc1ccccc1 [Example 54, (2S,4R)-4-Benzenesulfonyl-1-benzyl-pyrrolidine-2-carboxylic acid cyanomethyl-amide]",5.27,6.68
"N#CCNC(=O)[C@@H]1C[C@@H](S(=O)(=O)c2ccccc2)CN1CC1CCCCC1 [Example 55, (2S,4R)-4-Benzenesulfonyl-1-cyclohexylmethyl-pyrrolidine-2-carboxylic acid cyanomethyl-amide]",≤ 4.60,7.83
"N#CCNC(=O)[C@@H]1C[C@@H](S(=O)(=O)c2ccccc2)CN1C(c1ccccc1)C(F)(F)F (stereo partly drawn) [Example 56, (2S,4R)-4-Benzenesulfonyl-1-(2,2,2-trifluoro-1-phenyl-ethyl)-pyrrolidine-2-carboxylic acid cyanomethyl-amide]",≤ 4.60,7.37
"N#CCNC(=O)[C@@H]1C[C@@H](S(=O)(=O)c2ccccc2Cl)CN1C(c1ccccc1)C(F)(F)F (stereo partly drawn) [Example 57, (2S,4R)-4-(2-Chloro-benzenesulfonyl)-1-(2,2,2-trifluoro-1-phenyl-ethyl)-pyrrolidine-2-carboxylic acid cyanomethyl-amide]",4.77,7.84
"N#CCNC(=O)[C@@H]1C[C@@H](S(=O)(=O)c2ccccc2Cl)CN1C(=O)c1ccccc1 [Example 58, (2S,4R)-1-Benzoyl-4-(2-chloro-benzenesulfonyl)-pyrrolidine-2-carboxylic acid cyanomethyl-amide]",4.56,8.80
"N#CCNC(=O)[C@@H]1C[C@@H](S(=O)(=O)c2ccccc2Cl)CN1C(=O)c1ccc(F)cc1 [Example 59, (2S,4R)-4-(2-Chloro-benzenesulfonyl)-1-(4-fluoro-benzoyl)-pyrrolidine-2-carboxylic acid cyanomethyl-amide]",4.92,8.74
"N#CCNC(=O)[C@@H]1C[C@@H](S(=O)(=O)c2ccccc2Cl)CN1C(=O)C1CCCCC1 [Example 60, (2S,4R)-4-(2-Chloro-benzenesulfonyl)-1-cyclohexanecarbonyl-pyrrolidine-2-carboxylic acid cyanomethyl-amide]",4.89,9.30
"CCC(=O)N1C[C@H](S(=O)(=O)c2ccccc2Cl)C[C@H]1C(=O)NCC#N [Example 61, (2S,4R)-4-(2-Chloro-benzenesulfonyl)-1-propionyl-pyrrolidine-2-carboxylic acid cyanomethyl-amide]",4.65,8.92
"COCC(=O)N1C[C@H](S(=O)(=O)c2ccccc2Cl)C[C@H]1C(=O)NCC#N [Example 62, (2S,4R)-4-(2-Chloro-benzenesulfonyl)-1-(2-methoxy-acetyl)-pyrrolidine-2-carboxylic acid cyanomethyl-amide]",4.68,8.92
"N#CCNC(=O)[C@@H]1C[C@@H](S(=O)(=O)c2ccccc2Cl)CN1C1COC1 [Example 63, (2S,4R)-4-(2-Chloro-benzenesulfonyl)-1-oxetan-3-yl-pyrrolidine-2-carboxylic acid cyanomethyl-amide]",≤ 4.60,7.00
"N#CCNC(=O)[C@@H]1C[C@@H](S(=O)(=O)c2ccccc2Cl)CN1C1CCOCC1 [Example 64, (2S,4R)-4-(2-Chloro-benzenesulfonyl)-1-(tetrahydro-pyran-4-yl)-pyrrolidine-2-carboxylic acid cyanomethyl-amide]",≤ 4.60,6.96
"N#CCNC(=O)[C@@H]1C[C@@H](S(=O)(=O)c2ccccc2C(F)(F)F)CN1C(=O)c1ccc(F)cc1 [Example 65, (2S,4R)-1-(4-Fluoro-benzoyl)-4-(2-trifluoromethyl-benzenesulfonyl)-pyrrolidine-2-carboxylic acid cyanomethyl-amide]",≤ 4.60,9.22
"Cc1ccc(C(=O)N2C[C@H](S(=O)(=O)c3ccccc3C(F)(F)F)C[C@H]2C(=O)NCC#N)cc1 [Example 66, (2S,4R)-1-(4-Methyl-benzoyl)-4-(2-trifluoromethyl-benzenesulfonyl)-pyrrolidine-2-carboxylic acid cyanomethyl-amide]",≤ 4.60,9.22
"N#CCNC(=O)[C@@H]1C[C@@H](S(=O)(=O)c2ccccc2C(F)(F)F)CN1C(=O)C1CCCCC1 [Example 67, (2S,4R)-1-Cyclohexanecarbonyl-4-(2-trifluoromethyl-benzenesulfonyl)-pyrrolidine-2-carboxylic acid cyanomethyl-amide]",≤ 4.60,9.70
"N#CCNC(=O)[C@@H]1C[C@@H](S(=O)(=O)c2ccccc2C(F)(F)F)CN1C(=O)C1CCOCC1 [Example 68, (2S,4R)-1-(Tetrahydro-pyran-4-carbonyl)-4-(2-trifluoromethyl-benzenesulfonyl)-pyrrolidine-2-carboxylic acid cyanomethyl-amide]",≤ 4.60,9.52
"N#CCNC(=O)[C@@H]1C[C@@H](S(=O)(=O)c2ccccc2C(F)(F)F)CN1C(=O)c1ccncc1 [Example 69, (2S,4R)-1-(Pyridine-4-carbonyl)-4-(2-trifluoromethyl-benzenesulfonyl)-pyrrolidine-2-carboxylic acid cyanomethyl-amide]",≤ 4.60,9.40
"CN1CCC(C(=O)N2C[C@H](S(=O)(=O)c3ccccc3C(F)(F)F)C[C@H]2C(=O)NCC#N)CC1 [Example 70, (2S,4R)-1-(1-Methyl-piperidine-4-carbonyl)-4-(2-trifluoromethyl-benzenesulfonyl)-pyrrolidine-2-carboxylic acid cyanomethyl-amide formiate]",4.60,8.80
"N#CCNC(=O)[C@@H]1C[C@@H](S(=O)(=O)c2ccccc2C(F)(F)F)CN1C(=O)c1ccccc1 [Example 71, (2S,4R)-1-Benzoyl-4-(2-trifluoromethyl-benzenesulfonyl)-pyrrolidine-2-carboxylic acid cyanomethyl-amide]",≤ 4.60,9.30
"N#CCNC(=O)[C@@H]1C[C@@H](S(=O)(=O)c2ccccc2C(F)(F)F)CN1C(=O)OC1CCCC1 [Example 72, (2S,4R)-2-(Cyanomethyl-carbamoyl)-4-(2-trifluoromethyl-benzenesulfonyl)-pyrrolidine-1-carboxylic acid Cyclopentyl Ester]",≤ 4.60,9.10
